Like-named read-outs stand apart in the source and are kept apart here.
Target: T1, Recombinant human TPH1 (MBP tagged) (Homo sapiens, UniProt P17752)
T1 construct: cloning full length human TPH1 cDNA in to a bacterial pMAL-c5E expression vector; made in house; host or cells: E. coli BL21 (DE3)
T1 sequence (P17752 1-444): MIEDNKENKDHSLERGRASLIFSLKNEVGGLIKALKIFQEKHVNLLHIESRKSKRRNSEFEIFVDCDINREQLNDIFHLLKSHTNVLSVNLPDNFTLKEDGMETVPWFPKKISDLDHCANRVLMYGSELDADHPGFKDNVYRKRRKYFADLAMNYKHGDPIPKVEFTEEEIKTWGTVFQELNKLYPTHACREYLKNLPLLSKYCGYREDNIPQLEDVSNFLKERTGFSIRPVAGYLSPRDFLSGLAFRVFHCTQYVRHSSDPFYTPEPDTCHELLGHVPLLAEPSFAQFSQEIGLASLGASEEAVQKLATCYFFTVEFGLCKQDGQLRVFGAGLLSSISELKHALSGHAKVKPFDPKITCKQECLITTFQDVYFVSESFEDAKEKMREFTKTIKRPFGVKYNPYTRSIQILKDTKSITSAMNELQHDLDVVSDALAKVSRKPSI
Experiment: TPH1 in vitro inhibition assay (kinetic fluorescence)
Format: biochemical
Outline: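 Final mix: 15 nM MBP-TPH1, 30 μM Trp, 36 μM 6-methyltetrahydropterin, 25 μM ferrous ammonium sulfate, 50 mM MES pH 7.1, 1% DMSO, room temperature.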

[1] = read-out: TPH1 Range (TPH1 inhibition IC50)

Row | Molecule | IC50 [1] [µM] | IC50 (TPH1 Range (TPH1 inhibition IC50)) [µM]
1 | Cc1ccn(-c2cc(C3=CCNCC3)ccc2[C@@H](Oc2cc(N3CCC4(CC3)CN[C@H](C(=O)O)C4)nc(N)n2)C(F)(F)F)n1 [Example 1f, (S)-8-(2-amino-6-((R)-2,2,2-trifluoro-1-(2-(3-methyl-1H-pyrazol-1-yl)-4-(1,2,3,6-tetrahydropyridin-4-yl)phenyl)ethoxy)pyrimidin-4-yl)-2,8-diazaspiro[4.5]decane-3-carboxylic acid] | 0.05 to 0.3 | –
2 | CCCCOc1ccc(-c2ccc([C@@H](Oc3cc(N4CCC5(CC4)CN[C@H](C(=O)O)C5)nc(N)n3)C(F)(F)F)c(-n3ccc(C)n3)c2)cc1F [Example 1ca, (S)-8-(2-amino-6-((R)-1-(4′-butoxy-3′-fluoro-3-(3-methyl-1H-pyrazol-1-yl)-[1,1′-biphenyl]-4-yl)-2,2,2-trifluoroethoxy)pyrimidin-4-yl)-2,8-diazaspiro[4.5]decane-3-carboxylic acid] | < 0.05 | –
3 | Cc1ccn(-c2cc(Cl)ccc2[C@@H](Oc2cc(Oc3ccccc3)nc(N3CCC4(CC3)CNC(C(=O)O)C4)n2)C(F)(F)F)n1 (stereo partly drawn) [Example 46, 8-(4-((R)-1-(4-chloro-2-(3-methyl-H-pyrazol-1-yl)phenyl)-2,2,2-trifluoroethoxy)-6-phenoxypyrimidin-2-yl)-2,8-diazaspiro[4.5]decane-3-carboxylic acid] | 3 to 10 | –
4 | (S)-8-(6-((R)-1-(4-(1H-indol-6-yl)-2-(3-methyl- 1H-pyrazol-1-yl)phenyl)-2,2,2-trifluoroethoxy)- 2-aminopyrimidin-4-yl)-2,8- diazaspiro[4.5]decane-3-carboxylic acid [Example 1aa] | < 0.05 | –
5 | Cc1ccn(-c2cc(Cl)ccc2[C@@H](Oc2nc(N)nc(N3CCC4(CC3)CNC(C(=O)O)C4)n2)C(F)(F)F)n1 (stereo partly drawn) [Example 40, 8-(4-amino-6-((R)-1-(4-chloro-2-(3-methyl-H-pyrazol-1-yl)phenyl)-2,2,2-trifluoroethoxy)-1,3,5-triazin-2-yl)-2,8-diazaspiro[4.5]decane-3-carboxylic acid] | 0.3 to 3 | –
6 | Cc1ccn(-c2cc(CO)ccc2[C@@H](Oc2cc(N3CCC4(CC3)CN[C@H](C(=O)O)C4)nc(N)n2)C(F)(F)F)n1 [Example 25, (S)-8-(2-Amino-6-((R)-2,2,2-trifluoro-1-(4-(hydroxymethyl)-2-(3-methyl-H-pyrazol-1-yl)phenyl)ethoxy)pyrimidin-4-yl)-2,8-diazaspiro[4.5]decane-3-carboxylic acid] | < 0.05 | –
7 | Cc1ccn(-c2cc(-c3ccc(Cl)c(Cl)c3)ccc2[C@@H](Oc2cc(N3CCC4(CC3)CN[C@H](C(=O)O)C4)nc(N)n2)C(F)(F)F)n1 [Example 1af, (S)-8-(2-amino-6-((R)-1-(3′,4′-dichloro-3-(3-methyl-1H-pyrazol-1-yl)-[1,1′-biphenyl]-4-yl)-2,2,2-trifluoroethoxy)pyrimidin-4-yl)-2,8-diazaspiro[4.5]decane-3-carboxylic acid] | – | < 0.05

The next lines start with results.

Row | IC50 [1] [µM] | Molecule | IC50 (TPH1 Range (TPH1 inhibition IC50)) [µM]
8 | 0.05 to 0.3 | Nc1nc(O[C@H](c2ccc(-c3ccc4cn[nH]c4c3)cc2)C(F)(F)F)cc(N2CCC3(CC2)CN[C@H](C(=O)O)C3)n1 [Example 55h, (S)-8-(6-((R)-1-(4-(1H-indazol-6-yl)phenyl)-2,2,2-trifluoroethoxy)-2-aminopyrimidin-4-yl)-2,8-diazaspiro[4.5]decane-3-carboxylic acid] | –
9 | 0.3 to 3 | CC(C)Oc1ccc(-c2ccc([C@@H](Oc3cc(N4CCC5(CC4)CN[C@H](C(=O)O)C5)nc(N)n3)C(F)(F)F)c(N3CCNCC3)c2)cc1 [Example 36e, (S)-8-(2-amino-6-((R)-2,2,2-trifluoro-1-(4′-isopropoxy-3-(piperazin-1-yl)-[1,1′-biphenyl]-4-yl)ethoxy)pyrimidin-4-yl)-2,8-diazaspiro[4.5]decane-3-carboxylic acid] | –
10 | 0.05 to 0.3 | COC(=O)c1cccc(-c2ccc([C@@H](Oc3cc(N4CCC5(CC4)CN[C@H](C(=O)O)C5)nc(C)n3)C(F)(F)F)c(-n3ccc(C)n3)c2)c1 [Example 29u, (S)-8-(2-methyl-6-((R)-2,2,2-trifluoro-1-(3′-(methoxycarbonyl)-3-(3-methyl-1H-pyrazol-1-yl)-[1,1′-biphenyl]-4-yl)ethoxy)pyrimidin-4-yl)-2,8-diazaspiro[4.5]decane-3-carboxylic acid] | –
11 | 3 to 10 | Nc1nc(O[C@H](c2ccc(Br)cc2N2CCNCC2)C(F)(F)F)cc(N2CCC3(CC2)CN[C@H](C(=O)O)C3)n1 [Example 36d, (S)-8-(2-amino-6-((R)-1-(4-bromo-2-(piperazin-1-yl)phenyl)-2,2,2-trifluoroethoxy)pyrimidin-4-yl)-2,8-diazaspiro[4.5]decane-3-carboxylic acid] | –
12 | < 0.05 | Nc1nc(O[C@H](c2ccc(Cl)cc2-c2cnccn2)C(F)(F)F)cc(N2CCC3(CC2)CN[C@H](C(=O)O)C3)n1 [Example 34cu, (S)-8-(2-amino-6-((R)-1-(4-chloro-2-(pyrazin-2-yl)phenyl)-2,2,2-trifluoroethoxy)pyrimidin-4-yl)-2,8-diazaspiro[4.5]decane-3-carboxylic acid] | –
13 | 0.05 to 0.3 | COc1ccc(-c2ccc([C@@H](Oc3cc(N4CCC5(CC4)CN[C@H](C(=O)O)C5)nc(N)n3)C(F)(F)F)cc2)cc1F [Example 55e, (S)-8-(2-amino-6-((R)-2,2,2-trifluoro-1-(3′-fluoro-4′-methoxy-[1,1′-biphenyl]-4-yl)ethoxy)pyrimidin-4-yl)-2,8-diazaspiro[4.5]decane-3-carboxylic acid] | –
14 | < 0.05 | CC(C)Oc1cccc(-c2cc(Cl)ccc2[C@@H](Oc2cc(N3CCC4(CC3)CN[C@H](C(=O)O)C4)nc(N)n2)C(F)(F)F)c1 [Example 34ag, (S)-8-(2-amino-6-((R)-1-(5-chloro-3′-isopropoxy-[1,1′-biphenyl]-2-yl)-2,2,2-trifluoroethoxy)pyrimidin-4-yl)-2,8-diazaspiro[4.5]decane-3-carboxylic acid] | –
15 | 0.05 to 0.3 | COc1ccc2cc(-c3ccc([C@@H](Oc4cc(N5CCC6(CC5)CN[C@H](C(=O)O)C6)nc(N)n4)C(F)(F)F)cc3)ccc2n1 [Example 55ah, (S)-8-(2-amino-6-((R)-2,2,2-trifluoro-1-(4-(2-methoxyquinolin-6-yl)phenyl)ethoxy)pyrimidin-4-yl)-2,8-diazaspiro[4.5]decane-3-carboxylic acid] | –
16 | 0.05 to 0.3 | Nc1nc(O[C@H](c2ccc(Cl)cc2-c2ccc(F)c(C(F)(F)F)c2)C(F)(F)F)cc(N2CCC3(CC2)CN[C@H](C(=O)O)C3)n1 [Example 34bk, (S)-8-(2-amino-6-((R)-1-(5-chloro-4′-fluoro-3′-(trifluoromethyl)-[1,1′-biphenyl]-2-yl)-2,2,2-trifluoroethoxy)pyrimidin-4-yl)-2,8-diazaspiro[4.5]decane-3-carboxylic acid] | –
17 | 0.3 to 3 | C[C@@H](Nc1nc(N)nc(N2CCC3(CC2)CNC(C(=O)O)C3)n1)c1ccc2ccccc2c1 (stereo partly drawn) [Example 39e, 8-(4-amino-6-(((R)-1-(naphthalen-2-yl)ethyl)amino)-1,3,5-triazin-2-yl)-2,8-diazaspiro[4.5]decane-3-carboxylic acid] | –
18 | < 0.05 | COc1ccc(-c2ccc([C@@H](Oc3cc(N4CCC5(CC4)CN[C@H](C(=O)O)C5)nc(C)n3)C(F)(F)F)c(-n3ccc(C)n3)c2)c(OC)c1 [Example 29h, (S)-8-(6-((R)-1-(2′,4′-dimethoxy-3-(3-methyl-1H-pyrazol-1-yl)-[1,1′-biphenyl]-4-yl)-2,2,2-trifluoroethoxy)-2-methylpyrimidin-4-yl)-2,8-diazaspiro[4.5]decane-3-carboxylic acid] | –
19 | 0.05 to 0.3 | Nc1nc(O[C@H](c2ccc(Cl)cc2C2=CCCCC2)C(F)(F)F)cc(N2CCC3(CC2)CN[C@H](C(=O)O)C3)n1 [Example 34by, (S)-8-(2-amino-6-((R)-1-(5-chloro-2′,3′,4′,5′-tetrahydro-[1,1′-biphenyl]-2-yl)-2,2,2-trifluoroethoxy)pyrimidin-4-yl)-2,8-diazaspiro[4.5]decane-3-carboxylic acid] | –
20 | < 0.05 | Nc1nc(O[C@H](c2ccc(-c3ccc4nnccc4c3)cc2)C(F)(F)F)cc(N2CCC3(CC2)CN[C@H](C(=O)O)C3)n1 [Example 55dp, (S)-8-(2-amino-6-((R)-1-(4-(cinnolin-6-yl)phenyl)-2,2,2-trifluoroethoxy)pyrimidin-4-yl)-2,8-diazaspiro[4.5]decane-3-carboxylic acid] | –
21 | 0.05 to 0.3 | Nc1nc(O[C@H](c2ccc(Cl)cc2-c2cc(Cl)cc(C(F)(F)F)c2)C(F)(F)F)cc(N2CCC3(CC2)CN[C@H](C(=O)O)C3)n1 [Example 34ap, (S)-8-(2-amino-6-((R)-1-(3′,5-dichloro-5′-(trifluoromethyl)-[1,1′-biphenyl]-2-yl)-2,2,2-trifluoroethoxy)pyrimidin-4-yl)-2,8-diazaspiro[4.5]decane-3-carboxylic acid] | –
22 | < 0.05 | Nc1nc(O[C@H](c2ccc(-c3ccc4ccncc4c3)cc2)C(F)(F)F)cc(N2CCC3(CC2)CN[C@H](C(=O)O)C3)n1 [Example 55be, (S)-8-(2-amino-6-((R)-2,2,2-trifluoro-1-(4-(isoquinolin-7-yl)phenyl)ethoxy)pyrimidin-4-yl)-2,8-diazaspiro[4.5]decane-3-carboxylic acid] | –
23 | < 0.05 | Nc1nc(O[C@H](c2ccc(-c3ccc4ccccc4c3)cc2)C(F)(F)F)cc(N2CCC3(CC2)CN[C@H](C(=O)O)C3)n1 [Example 55m, (S)-8-(2-amino-6-((R)-2,2,2-trifluoro-1-(4-(naphthalen-2-yl)phenyl)ethoxy)pyrimidin-4-yl)-2,8-diazaspiro[4.5]decane-3-carboxylic acid] | –

From patent US11759462B2, “Spirocyclic compounds as tryptophan hydroxylase inhibitors” (priority 2013, dated 2023)
